Assay in all cases: spectrophotometric coupled-enzyme kinase inhibition assay
What all share (assay type): biochemical

The target in one assay is IRAK. As to conditions: read-out: Ki or IC50 IRAK. The procedure:
(§1) Affinity was measured using a kinase inhibition assay. Compounds were assayed for the inhibition of various kinases using a modification of a spectrophotometric coupled-enzyme assay. In this assay, a fixed concentration of activated kinase (10–40 nM) was incubated with various concentrations of a potential inhibitor dissolved in DMSO for 10 minutes at 30°C in a buffer containing 0.1 M HEPES, pH 7.5, containing 10 mM MgCl2, 2.5 mM phosphoenolpyruvate, 200 µM NADH, 2 mM DTT, 30 µg/mL pyruvate kinase, 10 µg/mL lactate dehydrogenase, and 200 µM–500 µM EGF receptor peptide. The EGF receptor peptide has the sequence […]. The reaction was initiated by the addition of ATP equal to the ATP Km of the kinase, and the assay plate is inserted into the spectrophotometer’s assay plate compartment that was maintained at 30°C. The decrease of absorbance at 340 nm was monitored as a function of time for 10 minutes. The rate data as a function of inhibitor concentration was either fit as an IC50 or to a competitive inhibition kinetic model to determine the compound Ki (see table 1).

A further assay deals with JNK3 (Homo sapiens, UniProt P53779). As to conditions: ATP equal to Km, 30°C. The protocol:
as §1

A further assay deals with T1, PRAK (Homo sapiens, UniProt Q8IW41).
T1 sequence (Q8IW41 1-473): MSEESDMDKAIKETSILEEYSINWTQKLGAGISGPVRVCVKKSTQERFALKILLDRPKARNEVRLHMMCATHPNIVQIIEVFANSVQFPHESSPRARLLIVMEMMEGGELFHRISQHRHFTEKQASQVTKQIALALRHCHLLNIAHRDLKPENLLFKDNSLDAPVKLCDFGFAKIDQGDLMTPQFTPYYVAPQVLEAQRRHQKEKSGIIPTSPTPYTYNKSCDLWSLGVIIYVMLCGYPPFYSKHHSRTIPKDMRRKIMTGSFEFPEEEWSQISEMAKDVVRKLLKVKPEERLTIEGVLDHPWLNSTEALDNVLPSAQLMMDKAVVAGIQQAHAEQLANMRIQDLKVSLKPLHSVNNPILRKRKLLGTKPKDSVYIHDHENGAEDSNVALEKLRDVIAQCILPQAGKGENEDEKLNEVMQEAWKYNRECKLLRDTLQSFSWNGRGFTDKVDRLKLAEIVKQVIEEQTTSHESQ
As to conditions: read-out: Ki or IC50 PRAK. The protocol:
as §1

Another assay addresses KDR (Homo sapiens, UniProt P35968). Particulars: read-out: Ki or IC50 KDR. The protocol: as §1
Another assay deals with JNK1 (Homo sapiens, UniProt P45983). Particulars: ATP equal to Km, 30°C. The protocol: as §1
Chain of JNK1 (P45983 whole entry, species assumed): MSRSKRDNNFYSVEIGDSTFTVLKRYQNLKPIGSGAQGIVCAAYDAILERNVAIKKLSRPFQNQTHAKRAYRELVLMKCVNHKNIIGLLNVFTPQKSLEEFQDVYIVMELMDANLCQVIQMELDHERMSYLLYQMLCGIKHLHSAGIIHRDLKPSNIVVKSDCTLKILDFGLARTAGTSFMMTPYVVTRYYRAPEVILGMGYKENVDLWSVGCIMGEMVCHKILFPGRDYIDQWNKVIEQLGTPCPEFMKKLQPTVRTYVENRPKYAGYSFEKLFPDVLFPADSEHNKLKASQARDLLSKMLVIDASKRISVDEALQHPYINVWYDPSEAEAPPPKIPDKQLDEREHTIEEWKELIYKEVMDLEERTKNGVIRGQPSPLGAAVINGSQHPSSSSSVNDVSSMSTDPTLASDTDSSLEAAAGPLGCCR
The target of a further assay is AKT3 (Homo sapiens, UniProt Q9Y243). As to conditions: read-out: Ki or IC50 AKT3. The procedure: as §1
Chain of AKT3 (Q9Y243 whole entry, species assumed): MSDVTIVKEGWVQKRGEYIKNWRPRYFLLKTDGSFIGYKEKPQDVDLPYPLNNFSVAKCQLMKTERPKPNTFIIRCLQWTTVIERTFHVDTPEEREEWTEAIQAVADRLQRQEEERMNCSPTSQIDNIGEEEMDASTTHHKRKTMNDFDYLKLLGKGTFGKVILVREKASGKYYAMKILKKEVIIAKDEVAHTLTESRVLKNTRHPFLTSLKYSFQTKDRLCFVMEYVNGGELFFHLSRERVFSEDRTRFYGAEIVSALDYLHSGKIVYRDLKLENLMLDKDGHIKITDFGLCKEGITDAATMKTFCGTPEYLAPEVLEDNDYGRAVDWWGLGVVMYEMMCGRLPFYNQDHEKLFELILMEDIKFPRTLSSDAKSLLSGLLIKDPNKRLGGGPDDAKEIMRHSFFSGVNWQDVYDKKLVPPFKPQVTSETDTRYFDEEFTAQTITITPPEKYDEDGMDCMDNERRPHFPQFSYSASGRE
A further assay concerns the target T2, MKK6 (Homo sapiens, UniProt P52564).
T2 sequence (P52564 1-334): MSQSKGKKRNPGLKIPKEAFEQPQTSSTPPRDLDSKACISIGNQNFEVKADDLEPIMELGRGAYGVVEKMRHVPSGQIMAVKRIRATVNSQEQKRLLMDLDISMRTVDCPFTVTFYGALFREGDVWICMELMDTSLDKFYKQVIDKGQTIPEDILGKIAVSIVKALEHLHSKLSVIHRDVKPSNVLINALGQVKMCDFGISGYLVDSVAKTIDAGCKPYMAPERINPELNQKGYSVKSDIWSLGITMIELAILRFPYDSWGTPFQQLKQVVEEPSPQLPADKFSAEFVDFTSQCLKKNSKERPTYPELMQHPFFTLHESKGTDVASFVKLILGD
As to conditions: read-out: Ki or IC50 MKK6. The protocol: as §1

Another assay deals with PDK1 (Homo sapiens, UniProt O15530). Particulars: read-out: Ki or IC50 PDK1. The protocol: as §1
Chain of PDK1 (O15530 whole entry): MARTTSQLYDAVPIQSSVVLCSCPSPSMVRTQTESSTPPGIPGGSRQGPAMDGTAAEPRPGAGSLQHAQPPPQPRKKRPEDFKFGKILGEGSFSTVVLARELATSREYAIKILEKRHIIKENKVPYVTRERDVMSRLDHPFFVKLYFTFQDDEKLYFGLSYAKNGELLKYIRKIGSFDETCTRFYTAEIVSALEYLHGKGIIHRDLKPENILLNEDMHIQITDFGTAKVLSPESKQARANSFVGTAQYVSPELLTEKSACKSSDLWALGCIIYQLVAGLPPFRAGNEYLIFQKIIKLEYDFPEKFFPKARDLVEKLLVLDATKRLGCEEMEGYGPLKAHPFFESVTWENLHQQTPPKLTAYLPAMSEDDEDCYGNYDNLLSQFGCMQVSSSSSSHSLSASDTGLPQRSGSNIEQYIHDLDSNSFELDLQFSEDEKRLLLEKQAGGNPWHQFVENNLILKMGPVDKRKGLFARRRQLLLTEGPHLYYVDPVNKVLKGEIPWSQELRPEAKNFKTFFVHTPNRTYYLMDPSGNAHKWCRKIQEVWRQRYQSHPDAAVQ
For a further assay, the target named is LCK (Homo sapiens, UniProt P06239). As to conditions: read-out: Ki or IC50 LCK. The protocol: as §1
For another assay, the target named is MAPKAP2 (Homo sapiens, UniProt P49137). Particulars: read-out: Ki or IC50 MAPKAP2. The procedure: as §1
Chain of MAPKAP2 (P49137 whole entry): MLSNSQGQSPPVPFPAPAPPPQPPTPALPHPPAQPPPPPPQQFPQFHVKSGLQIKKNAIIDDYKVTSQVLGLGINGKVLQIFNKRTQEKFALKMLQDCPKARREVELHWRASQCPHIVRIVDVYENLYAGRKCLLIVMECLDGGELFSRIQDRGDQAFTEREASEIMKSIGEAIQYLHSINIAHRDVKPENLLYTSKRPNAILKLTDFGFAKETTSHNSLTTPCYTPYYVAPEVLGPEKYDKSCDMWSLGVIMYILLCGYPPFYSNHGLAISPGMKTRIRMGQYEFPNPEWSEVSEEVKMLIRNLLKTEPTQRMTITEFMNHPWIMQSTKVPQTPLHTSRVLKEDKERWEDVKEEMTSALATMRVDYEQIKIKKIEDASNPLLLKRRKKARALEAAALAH
A further assay has as its target SYK (Homo sapiens, UniProt P43405). As to conditions: read-out: Ki or IC50 SYK. The protocol: as §1
In another assay the target is FLT3 (Homo sapiens, UniProt P36888). Particulars: read-out: Ki or IC50 FLT3. The procedure: as §1
The next assay addresses JAK2 (Homo sapiens, UniProt O60674). As to conditions: read-out: Ki or IC50 JAK2. The procedure:
as §1

A further assay concerns the target T3, MKK7 (Homo sapiens, UniProt O14733).
T3 sequence (O14733 1-419): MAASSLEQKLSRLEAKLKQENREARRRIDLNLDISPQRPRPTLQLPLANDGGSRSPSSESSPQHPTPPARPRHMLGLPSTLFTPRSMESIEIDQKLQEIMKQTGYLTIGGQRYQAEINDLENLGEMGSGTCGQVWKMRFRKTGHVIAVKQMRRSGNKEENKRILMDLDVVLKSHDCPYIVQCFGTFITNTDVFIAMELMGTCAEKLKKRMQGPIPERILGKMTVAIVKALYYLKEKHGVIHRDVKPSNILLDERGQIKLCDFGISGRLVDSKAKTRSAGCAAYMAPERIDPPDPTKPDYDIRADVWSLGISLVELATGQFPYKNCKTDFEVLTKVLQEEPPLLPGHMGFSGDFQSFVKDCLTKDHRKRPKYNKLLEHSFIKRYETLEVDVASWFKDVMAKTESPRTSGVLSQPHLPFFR
As to conditions: read-out: Ki or IC50 MKK7. The protocol:
as §1

The next assay has as its target EphA. Particulars: read-out: Ki or IC50 EphA. The procedure: as §1
In the next assay the target is FAK (Homo sapiens, UniProt Q05397). As to conditions: read-out: Ki or IC50 FAK. The procedure:
as §1

Another assay has as its target TIE2 (Homo sapiens, UniProt Q02763). Particulars: read-out: Ki or IC50 TIE2. The procedure: as §1
The next assay addresses COT (Homo sapiens, UniProt P41279). As to conditions: read-out: Ki or IC50 COT. The procedure:
as §1

Chain of KDR (P35968 20-1356, species assumed): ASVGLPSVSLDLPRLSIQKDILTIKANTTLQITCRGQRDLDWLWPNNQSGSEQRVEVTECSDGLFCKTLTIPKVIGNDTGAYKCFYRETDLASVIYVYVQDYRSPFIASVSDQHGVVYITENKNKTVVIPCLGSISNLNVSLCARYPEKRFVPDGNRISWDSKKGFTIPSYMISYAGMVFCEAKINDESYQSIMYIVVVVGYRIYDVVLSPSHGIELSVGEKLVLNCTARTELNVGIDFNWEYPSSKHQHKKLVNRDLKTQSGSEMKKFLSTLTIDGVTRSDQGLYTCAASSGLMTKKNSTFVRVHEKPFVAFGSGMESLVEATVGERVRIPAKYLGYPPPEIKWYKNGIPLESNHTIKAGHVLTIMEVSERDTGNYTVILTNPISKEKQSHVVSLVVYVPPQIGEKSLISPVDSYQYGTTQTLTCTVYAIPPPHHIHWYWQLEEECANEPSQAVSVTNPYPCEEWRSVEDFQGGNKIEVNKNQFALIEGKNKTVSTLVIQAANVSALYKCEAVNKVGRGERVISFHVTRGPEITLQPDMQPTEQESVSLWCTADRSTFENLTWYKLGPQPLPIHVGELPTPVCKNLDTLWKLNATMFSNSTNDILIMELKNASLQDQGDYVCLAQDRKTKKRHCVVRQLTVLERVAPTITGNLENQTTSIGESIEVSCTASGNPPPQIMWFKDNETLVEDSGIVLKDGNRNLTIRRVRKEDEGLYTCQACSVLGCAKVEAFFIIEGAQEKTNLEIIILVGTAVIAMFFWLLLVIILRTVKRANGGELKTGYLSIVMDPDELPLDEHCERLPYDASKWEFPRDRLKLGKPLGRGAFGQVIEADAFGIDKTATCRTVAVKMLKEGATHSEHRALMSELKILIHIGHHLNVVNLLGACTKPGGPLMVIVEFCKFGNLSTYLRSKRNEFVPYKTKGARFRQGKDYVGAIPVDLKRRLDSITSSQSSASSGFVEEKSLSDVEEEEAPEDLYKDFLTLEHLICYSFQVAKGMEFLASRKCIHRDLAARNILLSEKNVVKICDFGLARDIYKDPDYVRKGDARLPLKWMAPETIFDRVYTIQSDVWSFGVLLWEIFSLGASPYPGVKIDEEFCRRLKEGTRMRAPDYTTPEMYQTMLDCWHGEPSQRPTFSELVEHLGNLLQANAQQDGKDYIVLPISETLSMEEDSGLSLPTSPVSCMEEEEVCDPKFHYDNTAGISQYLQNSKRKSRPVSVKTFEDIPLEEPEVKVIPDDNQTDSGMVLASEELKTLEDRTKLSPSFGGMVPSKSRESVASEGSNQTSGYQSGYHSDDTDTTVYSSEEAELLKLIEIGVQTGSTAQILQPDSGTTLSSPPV
Chain of JNK3 (P53779 whole entry, species assumed): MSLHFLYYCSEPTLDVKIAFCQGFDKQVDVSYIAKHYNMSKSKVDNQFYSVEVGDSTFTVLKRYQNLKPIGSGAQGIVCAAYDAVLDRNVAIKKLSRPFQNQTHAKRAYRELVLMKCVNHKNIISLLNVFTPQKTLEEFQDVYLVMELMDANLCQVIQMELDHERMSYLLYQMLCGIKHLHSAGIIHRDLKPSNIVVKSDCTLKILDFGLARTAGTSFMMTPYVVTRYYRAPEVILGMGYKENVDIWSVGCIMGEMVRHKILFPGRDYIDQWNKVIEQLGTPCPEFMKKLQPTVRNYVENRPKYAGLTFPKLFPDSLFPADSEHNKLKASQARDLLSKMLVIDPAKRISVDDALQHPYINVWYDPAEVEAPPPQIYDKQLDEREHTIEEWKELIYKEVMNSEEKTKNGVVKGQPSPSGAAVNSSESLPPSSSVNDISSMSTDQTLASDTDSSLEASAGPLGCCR
Chain of TIE2 (Q02763 23-1124, species assumed): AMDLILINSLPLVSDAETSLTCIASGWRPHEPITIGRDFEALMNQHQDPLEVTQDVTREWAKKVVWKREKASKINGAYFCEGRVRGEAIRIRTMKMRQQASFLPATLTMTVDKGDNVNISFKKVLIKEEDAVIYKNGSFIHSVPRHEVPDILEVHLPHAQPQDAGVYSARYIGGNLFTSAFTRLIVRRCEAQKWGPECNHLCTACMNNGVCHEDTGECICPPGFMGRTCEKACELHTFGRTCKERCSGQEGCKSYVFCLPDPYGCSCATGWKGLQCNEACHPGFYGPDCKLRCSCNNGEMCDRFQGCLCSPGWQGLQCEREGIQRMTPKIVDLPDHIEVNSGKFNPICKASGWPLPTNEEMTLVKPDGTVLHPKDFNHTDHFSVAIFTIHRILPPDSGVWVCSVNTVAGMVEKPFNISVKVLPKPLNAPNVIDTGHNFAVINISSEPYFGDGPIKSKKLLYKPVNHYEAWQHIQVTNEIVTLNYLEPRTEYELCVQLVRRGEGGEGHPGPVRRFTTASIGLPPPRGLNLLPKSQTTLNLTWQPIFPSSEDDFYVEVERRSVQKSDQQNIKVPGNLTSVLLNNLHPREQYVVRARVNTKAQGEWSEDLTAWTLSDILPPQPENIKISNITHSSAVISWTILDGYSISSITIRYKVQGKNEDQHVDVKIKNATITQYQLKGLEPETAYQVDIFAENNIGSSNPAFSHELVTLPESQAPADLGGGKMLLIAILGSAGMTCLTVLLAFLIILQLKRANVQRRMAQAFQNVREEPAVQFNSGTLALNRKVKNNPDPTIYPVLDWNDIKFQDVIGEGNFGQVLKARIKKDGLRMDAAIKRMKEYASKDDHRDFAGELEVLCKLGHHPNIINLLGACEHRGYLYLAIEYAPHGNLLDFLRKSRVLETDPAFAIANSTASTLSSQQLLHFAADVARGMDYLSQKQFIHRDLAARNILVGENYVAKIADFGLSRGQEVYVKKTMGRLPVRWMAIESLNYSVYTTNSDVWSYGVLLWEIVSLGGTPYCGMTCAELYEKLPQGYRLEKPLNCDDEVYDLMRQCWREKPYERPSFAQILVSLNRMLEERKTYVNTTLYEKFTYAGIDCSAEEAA

The term Ki denotes a measure of affinity in units of concentration, obtained from inhibition or displacement. As for `Fc1ccc(-c2noc(CN3CCCCC3)c2-c2ccnc(NC3CCCCC3)n2)cc1` [V-05-015], the Ki was over 1 µM on IRAK; 0.008 µM at JNK3; over 1 µM at PRAK; over 1 µM on KDR; 0.12 µM at JNK1; over 1 µM on AKT3. Besides, the Ki on MKK6, at PDK1, at LCK, on MAPKAP2, on SYK and at FLT3 was over 1 µM throughout. For the same compound, the Ki on JAK2 and on MKK7 was over 1 µM in each case.
As to `OC[C@@H]1CCCN1Cc1onc(-c2ccc(F)cc2)c1-c1ccnc(NC2CCCCC2)n1` [V-05-014], the Ki at IRAK was over 1 µM; at JNK3 it was 0.01 µM; on EphA, over 1 µM; at FAK it was over 1 µM; on PRAK, over 1 µM; on KDR it was over 1 µM. Also, the inhibitory constant (Ki) is 0.3 µM at JNK1; over 1 µM on AKT3; over 1 µM at MKK6; over 1 µM on PDK1; over 1 µM at TIE2; over 1 µM on LCK. Further, the inhibitory constant (Ki) on COT, on MAPKAP2, at SYK and at MKK7 was over 1 µM throughout.
Turning to `OC1CCN(Cc2onc(-c3ccc(F)cc3)c2-c2ccnc(NC3CCCCC3)n2)CC1` [V-05-013], the inhibitory constant (Ki) was over 1 µM at IRAK; 0.005 µM on JNK3; over 1 µM at EphA; over 1 µM on PRAK; over 1 µM at KDR; 0.17 µM at JNK1. Further, the Ki on AKT3, on MKK6, at TIE2, at MAPKAP2, at SYK and at FLT3 was over 1 µM in each case. Besides, the Ki on JAK2 and on MKK7 was over 1 µM throughout.

The record behind these values is publication PMC3776780, “Dual p38/JNK Mitogen Activated Protein Kinase Inhibitors Prevent Ozone-Induced Airway Hyperreactivity in Guinea Pigs” (PLoS ONE, 2013).
